Values of other authors in PMC2574912 (Life sciences, 2008).

Columns and labels:
[1] = test system: non-AT1, non-AT2 binding site in rat brain; settings: sulfhydryl reducing agents, ref Karamyan and Speth, 2007
[2] = test system: AT-1 angiotensin receptor; settings: presence of PCMB; ref Karamyan and Speth, 2007
AT2 receptor = settings: PCMB; ref Karamyan, Speth unpublished observations

SMILES	Effect on binding of 125I-Ang II to the non-AT1, non-AT2 binding site [1]	Effect on AT1 receptor binding [2]	Effect on AT2 receptor binding (AT2 receptor)
O[C@@H](CS)[C@@H](O)CS (racemic) [dithiothreitol]	inhibit the binding	–	–
O=C(O)c1cc[c]([Hg][Cl])cc1 [PCMB, parachloromercuribenzoate]	–	inactivated	not inhibited
OCCS [β-mercaptoethanol]	inhibit the binding	–	–
